Assay results: patent US7807350B2 (The University of Chicago, priority 2003, dated 2010)
Where two headings read alike, the source gives them in different places.

How the values were obtained:
[1] = Pharmacokinetic analysis of plasma irinotecan, SN-38 and SN-38G in patients, by TA indel genotype; format: in vivo, human; conditions: for SN-38 AUC (mean) / SN-38G AUC (mean): after irinotecan
Description: Samples of 7 ml were collected into green top sodium heparinized Vacutainer® tubes prior to the infusion; 30, 60, and 90 minutes during the infusion; and 10, 20, 30, 45, and 60 minutes and 1.5, 2, 4, 6, 12, and 24 hours after the infusion. Samples were centrifuged (2500 rpm, 20 min, 4° C.) and the plasma was immediately separated, transferred as two aliquots into storage tubes, frozen at −80° C. until analysis.

[2] = relative to irinotecan; cited from earlier work
[3] = Toxicity (neutropenia, diarrhea, toxic death) in cycle 1 of irinotecan 350 mg/m2 every 3 weeks in cancer patients, by UGT1A1 genotype; conditions: for frequency of grade 4 neutropenia: cycle 1
[4] = cited from earlier work
[5] = Objective tumor response in the irinotecan 350 mg/m2 every 3 weeks trial; format: in vivo, human
Description: History, physical examination, complete blood count (CBC) with differential, serum chemistry profile (electrolytes, blood urea nitrogen, creatinine, glucose, albumin, alkaline phosphatase, GGTP, AST, ALT, total and conjugated bilirubin, uric acid, and lactate dehydrogenase), and coagulation profile (prothrombin time and partial thromboplastin time) were conducted prior to first treatment. Thereafter, history, physical examination, and toxicity assessment were conducted on day 1 of each cycle unless treatment-related toxicity required more frequent follow up. CBC and serum chemistry profile were obtained weekly throughout treatment, though CBCs were obtained 3 times per week with the appearance of grade 3 or 4 neutropenia or thrombocytopenia. Toxicity assessment was done according to the NCI common toxicity criteria, version 2.0 (website: ctep.cancer.gov). Objective tumor assessment by appropriate radiographic imaging was performed prior to starting therapy and after every 2 cycles.

[6] = 6/6 TA indel genotype, 30 patients
[7] = 6/7 TA indel genotype, 25 patients
[8] = 7/7 TA indel genotype, 6 patients

## CCc1c2c(nc3ccc(O)cc13)-c1cc3c(c(=O)n1C2)COC(=O)[C@]3(O)CC [SN-38, 7-ethyl-10-hydroxycamptothecin]
[1]; [6]
  Glucuronidation Ratio (SN-38G AUC/SN-38 AUC): 6.52
  SN-38 AUC (mean): 335.9 ng·h/mL
[1]; [7]
  Glucuronidation Ratio (SN-38G AUC/SN-38 AUC): 5.55
  SN-38 AUC (mean): 458.4 ng·h/mL
[1]; [8]
  Glucuronidation Ratio (SN-38G AUC/SN-38 AUC): 3.59
  SN-38 AUC (mean): 542.0 ng·h/mL
[2]
  antitumor activity higher than irinotecan: 100-1,000 fold

## CCc1c2c(nc3ccc(O[C@@H]4O[C@H](C(=O)O)[C@@H](O)[C@H](O)[C@H]4O)cc13)-c1cc3c(c(=O)n1C2)COC(=O)[C@]3(O)CC [SN-38G, 10-O-glucuronyl-SN-38]
[1]; [6]
  SN-38G AUC (mean): 1954.2 ng·h/mL
[1]; [7]
  SN-38G AUC (mean): 1887.9 ng·h/mL
[1]; [8]
  SN-38G AUC (mean): 1819.1 ng·h/mL

## CCc1c2c(nc3ccc(OC(=O)N4CCC(N5CCCCC5)CC4)cc13)-c1cc3c(c(=O)n1C2)COC(=O)[C@]3(O)CC [irinotecan, 7-ethyl-10-[4-(1-piperidino)-1-piperidino]carbonyloxycamptothecin]
[3]; neutropenia-related sepsis, day 11 of cycle 1, 7/7 genotype
  toxic death: One toxic death
[3]; patients with 6/6 genotype (0/30)
  frequency of grade 4 neutropenia: 0%
[3]; patients with 7/7 genotype (3/6)
  frequency of grade 4 neutropenia: 50%
[3]; patients with pretreatment bilirubin less than 0.6 mg/dl
  cases of grade 4 neutropenia: No cases
[4]; early single agent trials, dose limiting
  patients with grade 3-4 diarrhea: about one third
[4]; three-weekly regimen
  frequency of grade 3-4 diarrhea: 19%
[4]; three-weekly single agent regimen
  mortality rate: 1.6%
[4]; weekly schedule
  frequency of grade 3-4 diarrhea: 36%
[4]; weekly single agent regimen
  mortality rate: 5.3%
[5]; 60 patients assessable for response
  objective responses: 3
[5]; colorectal and head and neck cancer, 6/7 genotype
  patients achieving a partial response: Two
[5]; colorectal cancer, 6/6 genotype
  patients achieving a complete response: One
